Reference: patent US4689326A, “Process for controlling hyperlipidemia” (Research Corporation, priority 1985, dated 1987)

How the values were obtained:
Assay type in all cases: in vivo, CF1 male mice
serum cholesterol [1] = assay: Testing of Normal Mice: serum cholesterol (modified Liebermann-Burchard), Example 7; conditions: Mus musculus, 20 mg/kg/day ip
Experimental: (§1) Suspensions of Compounds Nos. 1-9 were prepared wherein the compounds were suspended in an aqueous 1% carboxymethylcelluose solution, homogenized and administered to CF1 male mice, each weighing approximately 25 grams, intraperitoneally on a daily basis for 16 days. The dosage was, with the exception of one compound, 20 milligrams of the active compound per kilogram of mouse weight per day. On days 9 and 16 blood was obtained by tail vein bleeding. The blood serum was separated by centrifugation for three minutes. Serum cholesterol levels were determined by a modification of the Liebermann-Burchard reaction. Serum was also collected on day 16 and the triglycerides content was determined by a commercial kit, BioDynamics/bnc Single Vile Colorimetric Method 348201. Each compound was tested on a group of six mice.
(§2) In addition to the above-described treated mice, untreated control groups of six mice were similarly tested on days 9 and 14 or 16 to determine their serum cholesterol and triglycerides blood levels. Table 5 reports the percent control, based on the serum cholesterol and serum triglyceride levels of the treated mice compared to the untreated controls. Table 5 also includes the standard deviation indicating the level of confidence of these numbers.
(§3) Example 7 was repeated substituting clofibrate, a compound used in the prior art to lower serum cholesterol and serum triglyceride levels. The clofibrate was administered as a suspension in an aqueous 1% solution of carboxymethylcellulose. However, unlike the compounds of the present invention which were administered at a dosage of 20 mg/kg day, ip, this compound was administered at the elevated concentration of 150 mg/kg day, ip.

serum triglycerides [2] = assay: Hypolipidemic Activity of Compounds 1 and 10-33, Example 13: serum triglycerides; conditions: Mus musculus, 384 h; 20 mg/kg/day ip, day 16, ± SD; read-out: Serum Triglyceride as a function of control, 16 Day
Experimental: (§4) Compounds 1 and 10-33, identified below in Table 11, were suspended by homogenation in a 1% aqueous solution of carboxymethylcellulose (CMC) such that a 0.2 ml dosage supplied a concentration of 20 mg/kg of the active compounds. The suspending agent, the 1% aqueous solution of CMC, was utilized as a control, applied in the same quantity, 0.2 ml. CF1 male mice, maintained in groups of six, were fed Wayne Blox [trademark] laboratory animal show ad libitum with water. The mice, which each weighed approximately 25 g, were administered the drugs interperitoneally at approximately the same time. On days 9 and 16 approximately […] of blood was taken from each of the animals by tail bleeding. After centrifugation to obtain serum, 25 microliter samples were assayed for total cholesterol utilizing the method of Ness et al. Serum triglyicerides were assayed, using a commercially available BioDynamics/bmc triglyiceride kit, on blood collected on the 16th day. By comparison to standards the milligram percent of cholesterol and milligram per deciliter concentration of triglicerides were calculated. Treated values were expressed as a percent of the level of the control animals plus or minus the standard deviation. The "T" values were obtained using the Student's "t" test.

serum triglycerides [3] = assay: Testing of Normal Mice: serum triglycerides (BioDynamics kit), Example 7; conditions: Mus musculus, 384 h; 20 mg/kg/day ip, day 16, ± SD
Experimental: as §1, §2, §3

serum cholesterol [4] = assay: Hypolipidemic Activity of Compounds 1 and 10-33, Example 13: serum cholesterol; conditions: Mus musculus, 20 mg/kg/day ip
Experimental: as §4

Structure (SMILES): O=c1[nH]c(=O)c2ccccc2c2ccccc12 [Compound 1, Diphenimide]
- response vs control in vivo at 20 mg/kg (serum cholesterol [1]; 216 h, day 9, ± SD, read-out: Serum Cholesterol Control, % Day 9): 81 ± 7%
- response vs control in vivo at 20 mg/kg (serum cholesterol [1]; 384 h, day 16, ± SD, read-out: Serum Cholesterol Control, % Day 16): 82 ± 4%
- response vs control in vivo at 20 mg/kg (serum triglycerides [2]): 81 ± 7%
- response vs control in vivo at 20 mg/kg (serum triglycerides [3]): 81 ± 7%
- response vs control in vivo at 20 mg/kg (serum cholesterol [4]; 216 h, day 9, ± SD, read-out: Serum Cholesterol as a function of control, 9 Day): 81 ± 7%
- response vs control in vivo at 20 mg/kg (serum cholesterol [4]; 384 h, day 16, ± SD, read-out: Serum Cholesterol as a function of control, 16 Day): 82 ± 4%
